Measurements published in patent publication EP3470068B1, “ANTIBACTERIAL COMPOSITIONS WITH ENHANCED ACTIVITY” (Università degli Studi di Parma, priority 2017, dated 2019).
Peptide text beside a SMILES is read from it.

Columns and labels:
[1] = tested on: Staphylococcus aureus ATCC 25923; assay: LD90/LD99 by microdilution and agar plating (CFU count); type: cell-based; conditions: S. aureus ATCC 25923; two hours contact at 37°C, plated on agar, CFU counted
Method: (§1) For each bacterial strain 3-5 morphologically similar colonies were collected from fresh cultures, inoculated in Brain Heart Infusion broth medium and then incubated at 37°C in agitation at 225 r.p.m. for about 3-4 hours. Subsequently, the bacterial suspension was centrifuged at 1000 r.p.m. for 20 minutes and the obtained pellet was resuspended in phosphate buffer 10 mM. Turbidity of the bacterial suspension was measured by evaluating the absorbance using a spectrophotometer at 600 nm. The range 0,08-0,13 equates to a concentration of about 10^8 CFU/ml. the bacterial suspension was diluted 1:100 in phosphate buffer 10 mM, then, within 30 minutes, 50 µl of this bacterial suspension (10^6 CFU/ml) were inoculated in each well of the microtiter plate to obtain a final bacterial concentration of about 5 x 10^5 CFU/ml.
(§2) Different molecules were tested for their ability to inhibit bacterial and fungal growth in broth culture. 50 µl of molecules at the indicated below concentrations were added to microtiter U plate 96 wells with phosphate buffer and a suspension of one of these strains: Escherichia coli ATCC 25922, Pseudomonas aeruginosa ATCC 27853, Staphylococcus aureus ATCC 25923, MRSA ATCC 43300, Candida albicans ATCC 11006 or Malassezia pachydermatis DSMZ 6172.
(§3) The following concentrations of the different molecules were tested: • NCP-3: from 0,2 µg/ml to 50 µg/ml • Benzalkonium chloride: from 0,00008% to 0,04% • Thimerosal: from 0,0008% to 0,4% • Tris/EDTA: from 0,4%/0,1% to 0,0008%/0,0002%
(§4) The bacterial or fungal suspension has been contacted for two hours with the different antimicrobial molecules at 37°C. After incubation, 20 µl of solution were withdrawn from each dilution and plated on agar medium, Columbia with 5% of bovine erythrocytes for bacterial strains and Sabouraud agar for fungal strains. The inoculum was uniformly distributed on agar plates with a sterile disposable handle. After incubation at 37°C for 24 hours for bacterial strains and 48 hours for fungal strains, colonies (CFU) were counted.

[2] = tested on: Pseudomonas aeruginosa ATCC 27853; assay: as above; type: cell-based; conditions: P. aeruginosa ATCC 27853; two hours contact at 37°C, plated on agar, CFU counted
Method: as §1, §2, §3, §4

[3] = tested on: Escherichia coli ATCC 25922; assay: as above; type: cell-based; conditions: E. coli ATCC 25922; two hours contact at 37°C, plated on agar, CFU counted
Method: as §1, §2, §3, §4

MRSA ATCC 43300 [4] = assay: MIC by serial microdilution in liquid culture; type: cell-based, Methicillin Resistant Staphylococcus aureus (MRSA); conditions: phosphate buffer 10 mM with 40% Müller Hinton broth, 24 hours at 37°C
Method: as §1, with “colonies” for “colonies were collected”, “fresh cultures were taken,” for “fresh cultures,”, “CFU/ml. The” for “CFU/ml. the”
(§5) The different molecules were tested for their ability to inhibit bacterial and fungal growth in broth culture. Single molecules were diluted in phosphate buffer 10 mM with 40% of Müller Hinton broth. 50 µl of diluted molecules were added to microtiter U plate wells with phosphate buffer and 40% of Müeller Hinton broth and a suspension of one of these strains: Escherichia coli ATCC 25922, Pseudomonas aeruginosa ATCC 27853, Staphylococcus aureus ATCC 25923, MRSA ATCC 43300, Candida albicans ATCC 11006 or Malassezia pachydermatis DSMZ 6172. […]

[5] = tested on: Candida albicans ATCC 11006; assay: LD90/LD99 by microdilution and agar plating (CFU count); type: cell-based; conditions: C. albicans ATCC 11006; two hours contact at 37°C, plated on Sabouraud agar, CFU counted
Method: (§6) For each fungal strain 3-5 morphologically similar colonies were collected from fresh cultures, inoculated in Brain Heart Infusion broth medium and then incubated at 37°C in agitation at 225 r.p.m. for 6-8 hours. Subsequently, the fungal suspension was centrifuged at 1000 r.p.m. for 20 minutes and the obtained pellet was resuspended in phosphate buffer 10 mM and diluted to a turbidity equal to 5 of McFarland standard, corresponding to a concentration of 10^8 CFU/ml. The fungal suspension was diluted 1:100 in phosphate buffer 10 mM, then, within 30 minutes, 50 µl of this bacterial suspension (10^6 CFU/ml) were inoculated in each well of microtiter plate to obtain a final concentration of about 5 x 10^5 CFU/ml.
as §2, §3, §4

[6] = tested on: Malassezia pachydermatis DSMZ 6172; assay: as above; type: cell-based; conditions: M. pachydermatis DSMZ 6172; two hours contact at 37°C, plated on Sabouraud agar, CFU counted
Method: as §6, §2, §3, §4

[7] = tested on: Candida albicans ATCC 11006; assay: MIC by serial microdilution in liquid culture; type: cell-based; conditions: C. albicans ATCC 11006; phosphate buffer 10 mM with 40% Müller Hinton broth, 48 hours at 37°C
Method: as §6, with “Fungal” for “The fungal”
as §5

[8] = tested on: Malassezia pachydermatis DSMZ 6172; assay: MIC by serial microdilution in liquid culture; type: cell-based; conditions: M. pachydermatis DSMZ 6172; phosphate buffer 10 mM with 40% Müller Hinton broth, 48 hours at 37°C
Method: as §6, with “Fungal” for “The fungal”
as §5

[9] = tested on: Staphylococcus aureus ATCC 25923; assay: MIC by serial microdilution in liquid culture; type: cell-based; conditions: S. aureus ATCC 25923; phosphate buffer 10 mM with 40% Müller Hinton broth, 24 hours at 37°C
Method: as §1, with “colonies” for “colonies were collected”, “fresh cultures were taken,” for “fresh cultures,”, “CFU/ml. The” for “CFU/ml. the”
(§7) The different molecules were tested for their ability to inhibit bacterial and fungal growth in broth culture. Single molecules were diluted in phosphate buffer 10 mM with 40% of Müller Hinton broth. 50 µl of diluted molecules were added to microtiter U plate wells with phosphate buffer and 40% of Müeller Hinton broth and a suspension of one of these strains: Escherichia coli ATCC 25922, Pseudomonas aeruginosa ATCC 27853, Staphylococcus aureus ATCC 25923, MRSA ATCC 43300, Candida albicans ATCC 11006 or Malassezia pachydermatis DSMZ 6172.
(§8) For bacterial strains the different molecules were tested at the following concentrations: • NCP-3: from 0,2 µg/ml to 50 µg/ml • Benzalkonium chloride: from 0,00008% to 0,04% • Thimerosal: from 0,0008% to 0,4% • Tris/EDTA: from 0,4%/0,1% to 0,0008%/0,0002%
(§9) Bacterial and fungal growth controls were cultured in absence of antimicrobial molecules. Microtiter plates were incubated 24 or 48 hours (bacterial and fungal strains, respectively) at 37°C and subsequently MIC was determined for each molecule against each strain.

[10] = tested on: Pseudomonas aeruginosa ATCC 27853; assay: MIC by serial microdilution in liquid culture; type: cell-based; conditions: P. aeruginosa ATCC 27853; phosphate buffer 10 mM with 40% Müller Hinton broth, 24 hours at 37°C
Method: as §1, with “colonies” for “colonies were collected”, “fresh cultures were taken,” for “fresh cultures,”, “CFU/ml. The” for “CFU/ml. the”
as §7, §8, §9

[11] = tested on: Escherichia coli ATCC 25922; assay: MIC by serial microdilution in liquid culture; type: cell-based; conditions: E. coli ATCC 25922; phosphate buffer 10 mM with 40% Müller Hinton broth, 24 hours at 37°C
Method: as §1, with “colonies” for “colonies were collected”, “fresh cultures were taken,” for “fresh cultures,”, “CFU/ml. The” for “CFU/ml. the”
as §7, §8, §9

Gram negative = assay: MIC by serial microdilution; type: cell-based; conditions: used alone
Method: as §1, with “colonies” for “colonies were collected”, “fresh cultures were taken,” for “fresh cultures,”, “CFU/ml. The” for “CFU/ml. the”
as §5

Gram positive bacteria = assay: MIC by serial microdilution; type: cell-based; conditions: used alone
Method: as §1, with “colonies” for “colonies were collected”, “fresh cultures were taken,” for “fresh cultures,”, “CFU/ml. The” for “CFU/ml. the”
as §5

MRSA ATCC 43300 [12] = assay: LD90/LD99 by microdilution and agar plating (CFU count); type: cell-based, Methicillin Resistant Staphylococcus aureus (MRSA); conditions: two hours contact at 37°C, plated on agar, CFU counted
Method: as §1
Different molecules were tested for their ability to inhibit bacterial and fungal growth in broth culture. […]
The bacterial or fungal suspension has been contacted for two hours with the different antimicrobial molecules at 37°C. […] After incubation at 37°C for 24 hours for bacterial strains and 48 hours for fungal strains, colonies (CFU) were counted.

Compound: CC[C@H](C)[C@H](NC(=O)[C@H](CCCCN)NC(=O)[C@H](Cc1ccc(O)cc1)NC(=O)[C@H](Cc1ccccc1)NC(=O)[C@H](CC(C)C)NC(=O)[C@H](CC(N)=O)NC(=O)[C@H](CCCCN)NC(=O)[C@@H](NC(=O)[C@H](C)NC(=O)[C@@H]1CCCN1C(=O)[C@@H](NC(=O)[C@@H](NC(=O)[C@H](CCCCN)NC(=O)[C@H](CO)NC(=O)[C@H](CC(C)C)NC(=O)[C@@H](NC(=O)[C@H](Cc1c[nH]c2ccccc12)NC(=O)[C@@H](NC(=O)[C@H](CC(C)C)NC(=O)[C@@H](N)CCCCN)[C@@H](C)CC)[C@@H](C)CC)[C@@H](C)O)[C@@H](C)CC)[C@@H](C)CC)C(=O)O [NCP-3] (H-KLIWILSKTIPAIKNLFYKI-OH)
- LD90 [1]: >1,6 µg/ml
- LD99 [1]: 6,3 µg/ml
- LD90 [2]: 6,3 µg/ml
- LD99 [2]: 12,5 µg/ml
- LD90 [3]: 6,3 µg/ml
- LD99 [3]: 12,5 µg/ml
- MIC (MRSA ATCC 43300 [4]): 6,3 µg/ml
- LD90 [5]: >6,3 µg/ml
- LD99 [5]: 12,5 µg/ml
- LD90 [6]: >1,6 µg/ml
- LD99 [6]: 3,2 µg/ml
- MIC [7]: 12,5 µg/ml
- MIC [8]: 3,1 µg/ml
- MIC [9]: 3,1 µg/ml
- MIC [10]: 6,3 µg/ml
- MIC [11]: 6,3 µg/ml
- MIC (Gram negative): 6,3 µg/ml
- MIC (Gram positive bacteria): 3,2 µg/ml
- LD90 (MRSA ATCC 43300 [12]): 6,3 µg/ml
- LD99 (MRSA ATCC 43300 [12]): 12,5 µg/ml
